Data published in US8629168B2, “Benzoxazoles and oxazolopyridines being useful as janus kinases inhibitors” (priority 2006, dated 2014).

Target: T1, GST-JAK2(808-1132) (Homo sapiens, UniProt O60674)
T1 construct: GST-JAK2(808-1132) is purchased from Invitrogen; purchased Invitrogen (Carlsbad, USA) #4288
Assay: EPK JAK/TYK-kinase family profiling assay (Caliper mobility shift), JAK2
Type: biochemical
Settings: Caliper mobility shift assay of Example 187, 20 μM ATP, read-out: IC50 with Test in present Example
Source text: All four kinases of the JAK/TYK-kinase family are used as purified recombinant GST-fusion proteins, containing the active kinase domains. GST-JAK1(866-1154), GST-JAK3(811-1124), and GST-TYK2(888-1187) are expressed and purified by affinity chromatography. GST-JAK2(808-1132) is purchased from Invitrogen (Carlsbad, USA, #4288).
The kinase assays are based on the Caliper mobility shift assay using the LabChip 3000 systems. This technology is similar to capillary electrophoresis and uses charge driven separation of substrate and product in a microfluidic chip.
All kinase reactions are performed in 384 well microtiter plates in a total reaction volume of 18 μl. The assay plates are prepared with 0.1 μl per well of test compound in the appropriate test concentration, as described under the section “preparation of compound dilutions”. The reactions are started by combining 9 μl of substrate mix (consisting of peptide and ATP) with 9 μl of kinase dilution. The reactions are incubated for 60 minutes at 30° C. and stopped by adding 70 μl of stop buffer (100 mM Hepes, 5% DMSO, 0.1% Coating reagent, 10 mM EDTA, 0.015% Brij 35).
Fluorescently labeled synthetic peptides are used as substrates in all reactions. […] Specific assay conditions are described in Table 1:
The terminated reactions are transferred to a Caliper LabChip 3000 reader (Caliper Life Sciences, Mountain View, Calif., USA) and the turnover of each reaction is measured by determining the substrate/product ratio.
Test compounds are dissolved in DMSO (10 mM) and transferred into 1.4 mL flat bottom or V-shaped Matrix tubes carrying a unique 2D matrix chip by individual compound hubs. The numbers of these chips are distinctively linked to the individual compound identification numbers. The stock solutions are stored at −20° C. if not used immediately. For the test procedure the vials are defrosted and identified by a scanner whereby a working sheet is generated that guides the subsequent working steps.
Compound dilutions are made in 96 well plates. This format enabled the assay of maximally 40 individual test compounds at 8 concentrations (single points) including 4 reference compounds. The dilution protocol includes the production of pre-dilution plates, master plates and assay plates:
Pre-dilution plates: 96 polypropylene well plates are used as pre-dilution plates. A total of 4 pre-dilution plates are prepared including 10 test compounds each on the plate positions A1-A10, one standard compound at A11 and one DMSO control at A12. All dilution steps are done on a Hamilton STAR robot (Hamilton, Co., Reno, Nev., USA).
Master plates: 100 μL of individual compound dilutions including standard compound and controls of the 4 “pre-dilution plates” are transferred into a 384 “master plate” including the following concentrations 1,820, […], 182, 54.6, 18.2, 5.46, 1.82 and 0.546 μM, respectively in 90% of DMSO.
Assay plates: Identical assay plates are then prepared by pipetting 100 nL each of compound dilutions of the master plates into 384-well “assay plates”. In the following the compounds are mixed with 9 μL of assays components plus 9 μL enzyme corresponding to a 1:181 dilution steps enabling the final concentration of 10, 3.0, 1.0, 0.3, 0.1, 0.03, 0.01 and 0.003 μM, respectively. The preparation of the master plates are handled by the Matrix PlateMate Plus robot (Thermo Fisher Scientific, Handforth, Cheshire, United Kingdom) and replication of assay plates by the HummingBird robot (Genomic Solutions, Inc., Ann Arbor, Mich., USA).

T1 sequence (O60674 808-1132): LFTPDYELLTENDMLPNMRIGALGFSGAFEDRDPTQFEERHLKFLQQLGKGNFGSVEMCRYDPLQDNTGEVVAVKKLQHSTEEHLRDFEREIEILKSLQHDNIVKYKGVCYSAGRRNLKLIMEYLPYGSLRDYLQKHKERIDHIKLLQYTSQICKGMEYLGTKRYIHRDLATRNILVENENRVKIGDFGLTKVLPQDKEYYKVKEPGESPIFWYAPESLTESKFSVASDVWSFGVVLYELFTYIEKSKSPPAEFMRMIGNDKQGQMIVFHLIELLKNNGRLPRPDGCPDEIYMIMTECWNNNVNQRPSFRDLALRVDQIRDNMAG

| SMILES | IC50 [nM] |
| --- | --- |
| CS(=O)(=O)c1ccc(-c2cccc3nc(Nc4ccc(N5CCN(C6CC6)CC5)cc4)oc23)cc1 [Example 113, [4-(4-Cyclopropyl-piperazin-1-yl)-phenyl]-[7-(4-methanesulfonyl-phenyl)-benzooxazol-2-yl]-amine] | 270 |
| COCCN1CCN(c2ccc(Nc3nc4cccc(-c5ccc(S(C)(=O)=O)cc5)c4o3)cc2C)CC1 [Example 115, [7-(4-Methanesulfonyl-phenyl)-benzooxazol-2-yl]-{4-[4-(2-methoxy-ethyl)-piperazin-1-yl]-3-methyl-phenyl}-amine] | 39 |
| CCN1CCN(c2ccc(Nc3nc4cccc(-c5ccc(C(=O)N6CCS(=O)(=O)CC6)cc5)c4o3)cc2C)CC1 [Example 116, (1,1-Dioxo-1lambda*6*-thiomorpholin-4-yl)-(4-{2-[4-(4-ethyl-piperazin-1-yl)-3-methyl-phenylamino]-benzooxazol-7-yl}-phenyl)-methanone] | 15 |
| CCN1CCN(Cc2ccc(Nc3nc4cccc(-c5ccc(C(=O)N6CCOCC6)c(F)c5)c4o3)cc2C)CC1 [Example 119, (4-{2-[4-(4-Ethyl-piperazin-1-ylmethyl)-3-methyl-phenylamino]-benzooxazol-7-yl}-2-fluoro-phenyl)-morpholin-4-yl-methanone] | 19.5 |
| Cc1cc(Nc2nc3cccc(-c4cc(F)c(CN5CCOCC5)c(F)c4)c3o2)ccc1C(=O)NCCN(C)C [Example 122, 4-[7-(3,5-Difluoro-4-morpholin-4-ylmethyl-phenyl)-benzooxazol-2-ylamino]-N-(2-dimethylamino-ethyl)-2-methyl-benzamide] | 11.1 |
| CCN(CC)C(=O)c1ccc(Nc2nc3cccc(-c4ccc(CC(=O)N5CCS(=O)(=O)CC5)cc4)c3o2)cc1OC [Example 123, 4-(7-{4-[2-(1,1-Dioxo-1lambda*6*-thiomorpholin-4-yl)-2-oxo-ethyl]-phenyl}-benzooxazol-2-ylamino)-N,N-diethyl-2-methoxy-benzamide] | 5.4 |
| CS(=O)(=O)c1ccc(Nc2nc3cccc(-c4ccc(CC(=O)N5CCOCC5)cc4)c3o2)cc1 [Example 124, 2-{4-[2-(4-Methanesulfonyl-phenylamino)-benzooxazol-7-yl]-phenyl}-1-morpholin-4-yl-ethanone] | 5.2 |
| COc1ccc(Nc2nc3cccc(-c4ccc(C(=O)N5CCOCC5)c(C)c4)c3o2)cc1N1CCN(C)CC1 [Example 127, (4-{2-[4-Methoxy-3-(4-methyl-piperazin-1-yl)-phenylamino]-benzooxazol-7-yl}-2-methyl-phenyl)-morpholin-4-yl-methanone] | 30 |
| Cc1cc(-c2cccc3nc(Nc4cccc(N5CCN(C)CC5)c4)oc23)ccc1C(=O)N1CCOCC1 [Example 129, (2-Methyl-4-{2-[3-(4-methyl-piperazin-1-yl)-phenylamino]-benzooxazol-7-yl}-phenyl)-morpholin-4-yl-methanone] | 45 |
| Cc1cc(Nc2nc3cccc(-c4ccc(C(=O)N5CCOCC5)c(F)c4)c3o2)ccc1CN1CCOCC1 [Example 131, {2-Fluoro-4-[2-(3-methyl-4-morpholin-4-ylmethyl-phenylamino)-benzooxazol-7-yl]-phenyl}-morpholin-4-yl-methanone] | 19.5 |
| CC(=O)NC1Cc2ccc(Nc3nc4cccc(-c5ccc(CN6CCOCC6)c(F)c5)c4o3)cc2C1 (stereo not drawn) [Example 132, N-{5-[7-(3-Fluoro-4-morpholin-4-ylmethyl-phenyl)-benzooxazol-2-ylamino]-indan-2-yl}-acetamide] | 21 |
| C[S+]([O-])c1ccc(Nc2nc3cccc(-c4ccc(CC(=O)N5CCOCC5)cc4)c3o2)cc1 (stereo not drawn) [Example 135, 2-{4-[2-(4-Methanesulfinyl-phenylamino)-benzooxazol-7-yl]-phenyl}-1-morpholin-4-yl-ethanone] | 18 |
| COc1cc(Nc2nc3cccc(-c4ccc(Cn5ccnc5)cc4)c3o2)cc(OC)c1OC [Example 136, [7-(4-Imidazol-1-ylmethyl-phenyl)-benzooxazol-2-yl]-(3,4,5-trimethoxy-phenyl)-amine] | 18 |

Further lines, results first:

| IC50 [nM] | SMILES |
| --- | --- |
| 14.1 | O=S1(=O)CCN(Cc2c(F)cc(-c3cccc4nc(Nc5ccc(N6CCN(C7CC7)CC6)cc5)oc34)cc2F)CC1 [Example 114, [4-(4-Cyclopropyl-piperazin-1-yl)-phenyl]-{7-[4-(1,1-dioxo-1lambda*6*-thiomorpholin-4-ylmethyl)-3,5-difluoro-phenyl]-benzooxazol-2-yl}-amine] |
| 29.5 | CCN(CC)C(=O)c1ccc(Nc2nc3cccc(-c4cc(F)c(CN5CCN(C(C)=O)CC5)c(F)c4)c3o2)cc1C [Example 117, 4-{7-[4-(4-Acetyl-piperazin-1-ylmethyl)-3,5-difluoro-phenyl]-benzooxazol-2-ylamino}-N,N-diethyl-2-methyl-benzamide] |
| 43 | CCN(CC)C(=O)c1ccc(Nc2nc3cccc(-c4cc(F)c(CN5CCNCC5)c(F)c4)c3o2)cc1C [Example 118, 4-[7-(3,5-Difluoro-4-piperazin-1-ylmethyl-phenyl)-benzooxazol-2-ylamino]-N,N-diethyl-2-methyl-benzamide] |
| 39 | CNC(=O)c1ccc(Nc2nc3cccc(-c4cc(F)c(CN5CCOCC5)c(F)c4)c3o2)cc1C [Example 120, 4-[7-(3,5-Difluoro-4-morpholin-4-ylmethyl-phenyl)-benzooxazol-2-ylamino]-2,N-dimethyl-benzamide] |
| 210 | Cc1cc(Nc2nc3cccc(-c4cc(F)c(CN5CCOCC5)c(F)c4)c3o2)ccc1N1CCN(CCC(F)(F)F)CC1 [Example 121] |
| 70.5 | O=C1CCCN1c1ccc(Nc2nc3cccc(-c4cc(F)c(CN5CCS(=O)(=O)CC5)c(F)c4)c3o2)cc1 [Example 125, 1-(4-{7-[4-(1,1-Dioxo-1lambda*6*-thiomorpholin-4-ylmethyl)-3,5-difluoro-phenyl]-benzooxazol-2-ylamino}-phenyl)-pyrrolidin-2-one] |
| 165 | O=C1CCCN1c1ccc(Nc2nc3cccc(-c4cc(F)c(CN5CCOCC5)c(F)c4)c3o2)cc1 [Example 126, 1-{4-[7-(3,5-Difluoro-4-morpholin-4-ylmethyl-phenyl)-benzooxazol-2-ylamino]-phenyl}-pyrrolidin-2-one] |
| 19 | CN1CCN(c2cccc(Nc3nc4cccc(-c5cc(F)c(CN6CCS(=O)(=O)CC6)c(F)c5)c4o3)c2)CC1 [Example 128, {7-[4-(1,1-Dioxo-1lambda*6*-thiomorpholin-4-ylmethyl)-3,5-difluoro-phenyl]-benzooxazol-2-yl}-[3-(4-methyl-piperazin-1-yl)-phenyl]-amine] |
| 6.55 | COc1ccc(Nc2nc3cccc(-c4cc(F)c(CN5CCS(=O)(=O)CC5)c(F)c4)c3o2)cc1N1CCN(C)CC1 [Example 130, {7-[4-(1,1-Dioxo-1lambda*6*-thiomorpholin-4-ylmethyl)-3,5-difluoro-phenyl]-benzooxazol-2-yl}-[4-methoxy-3-(4-methyl-piperazin-1-yl)-phenyl]-amine] |
| 14 | CC(=O)NC1Cc2ccc(Nc3nc4cccc(-c5ccc(CN6CCS(=O)(=O)CC6)cc5)c4o3)cc2C1 (stereo not drawn) [Example 133, N-(5-{7-[4-(1,1-Dioxo-1lambda*6*-thiomorpholin-4-ylmethyl)-phenyl]-benzooxazol-2-ylamino}-indan-2-yl)-acetamide] |
| 98 | O=C1Cc2cc(Nc3nc4cccc(-c5cc(F)c(CN6CCOCC6)c(F)c5)c4o3)ccc2N1 [Example 134, 5-[7-(3,5-Difluoro-4-morpholin-4-ylmethyl-phenyl)-benzooxazol-2-ylamino]-1,3-dihydro-indol-2-one] |
